According to patent publication US7459455B2, “Pyrimidine compounds” (SmithKline Beecham Corporation, priority 2002, dated 2008):
Structures can show the parent of a compound that is named as a salt.

What was measured:
[1] = target: T1, GST-VEGFR2 (Homo sapiens, UniProt P35968); assay: VEGF-R2 Enzyme Assay (VEGF-E), LANCE method; type: biochemical; settings: GST-VEGFR2, 75 μM ATP, peptide phosphorylation
T1 construct: GST-VEGFR2, baculovirus expressed recombinant constructs of the intracellular domains of human TIE2 tagged by GST; made in house
From the text: VEGF-R2 Enzyme Assay VEGF-E)
The VEGF enzyme assay used the LANCE method (Wallac) and GST-VEGFR2, baculovirus expressed recombinant constructs of the intracellular domains of human TIE2 tagged by GST. The method measured the ability of the purified enzymes to catalyse the transfer of the γ-phosphate from ATP onto tyrosine residues in a biotinylated synthetic peptide, (biotin-aminohexyl-EEEEYFELVAKKKK-NH2). This peptide phosphorylation was detected using the following procedure: GST-VEGFR2 was incubated for 40-60 mins at room temperature with 75 μM ATP, 5 mM MgCl2, 0.1 mM DTT, 0.1 mg/mL BSA and the test compound (diluted from a 10 mM stock in DMSO for desired concentration) in 100 mM HEPES buffer. The reaction was stopped by the addition of EDTA (final concentration 50 mM). Streptavidin linked-APC (allophycocyanin, Molecular Probe) and Europium-labeled anti-phosphorylated tyrosile antibody (Wallac) were then added at the final concentration of 15 nM and 1 nM, respectively. The APC signal was measured using an ARVO multilabel counter (Wallac Berthold, Japan). The percent inhibition of activity was calculated relative to blank control wells. The concentration of test compound that inhibits 50% of activity (IC50) was interpolated using nonlinear regression (Levernberg-Marquardt) and the equation, γ=Vmax (1−x/(K+x))+Y2, where “K” was equal to the IC50. The IC50 values were converted to pIC50 values, i.e., −log IC50 in Molar concentration.

[2] = system: Human umbilical cord endothelial cells (HUVEC); assay: VEGF-Driven Cellular Proliferation Assay: BrdU Incorporation Assay (VEGF-C); type: cell-based
Description: VEGF-Driven Cellular Proliferation Assay: BrdU Incorporation Assay (VEGF-C)
Human umbilical cord endothelial cells (HUVEC, Clonetics, CC2519) were passaged in Type I collagen-coated 100-mm petridishes in EGM-MV medium (Clonetics, CC3125) at 37 C in a humidified 5% CO2, 95% air incubator. (HUVEC passaged more than 6 times in vitro were discarded and not subjected to assaying.) The cells were harvested using trypsin/EDTA, counted using a haemocytometer and plated at 5000 cells/well in a Type I-collagen coated 96-well plate (Becton Dickinson, 354407) in M199 medium (Gibco BRL, 12340-030) containing 5% FBS (Hyclone, A 1115-L) and gentamicin (at 50 ug/ml, Gibco BRL). After incubation overnight at 37° C., the media were replaced with 100 ul of M199 serum-free medium containing compounds at various concentrations with 0.6% DMSO and gentamicin. The compounds were diluted in serum-free M199 medium from 10 mM stock solutions prepared in 100% DMSO. After a 30 min incubation at 37° C. the cells were fed with 100 ul of serum-free M199 medium containing gentamicin, 0.2% culture-grade bovine serum albumin (BSA, Sigma A1993) and 20 ng/ml of VEGF (R&D systems, 293-VE) or 0.6 ng/ml of basic FGF (R&D systems, 233-FB), and cultured at 37° C. for another 24 h. The cells were pulsed with bromodeoxyuridine (BrdU at 10 μM in serum-free M199) at 37° C. for an additional 24 h. The incorporation of BrdU into the proliferating HUVEC were analyzed using BrdU Cell Proliferation ELISA (Roche Molecular Biochemicals, 1647229) according to the manufacturer's protocols. The optical density at 450 nm was measured with a multilabel counter (ARVO SX, Wallac). The percent inhibition of cell growth was calculated relative to blank control wells. The concentration of test compound that inhibits 50% of cell growth (IC50) was interpolated using nonlinear regression (Levernberg-Marquardt) and the equation, γ=Vmax (1−x/(K+x))+Y2, where “K” was equal to the IC50. The IC50 values were converted to pIC50 values, i.e., −log IC50 in Molar concentration.

[3] = target: T2, Recombinant GST-Tie2 (Homo sapiens, UniProt Q02763); assay: Tie2 Fluorescence Polarization Kinase Activity Assay (TIE2-FP); type: biochemical; settings: activated Tie2, 200 μM ATP
T2 construct: GST
Description: Tie2 Fluorescence Polarization Kinase Activity Assay: (TIE2-FP)
Activation of Recombinant Tie2 Activation:
Recombinant GST-Tie2 was activated by incubating the enzyme in 20 mM Tris-HCl, pH 7.5, 12 mM MgCl2, 100 mM NaCl, 20 μM sodium vanidate, 1 mM DT and 300 μM ATP at room temperature for 2 hours. The activation mixture was then passed through a NAP-25 desalting column (Pharmacia Biotech cat. no. 17-0852-O2) to remove the free ATP. The activated enzyme was stored as aliquots at −80° C. in 20 mM Tris-HCl, pH 7.5 and 100 mM NaCl.
The final assay conditions were 50 mM HEPES, pH 7.5, 5% DMSO (when screening compounds), 200 μM ATP, 5 mM MgCl2, 1 mM DTT, 50 μM sodium vanidate, 1 nM activated enzyme, and 200 μM peptide. IC50's of compounds were measured under subsaturating ATP (200 μM) and varing concentrations of activated Tie2 and peptide substrate (RFWKYEFWR-OH; MW 1873 Da, TFA salt). Panvera Anti-phosphotyrosine antibody (Cat#P2840) and PTK Green Tracer (Cat#P2842) were used to detect the phosphorylated peptide. Polarization was measured on a TECAN Polarion in 138-second cycles for 30 minutes at room temperature. IC50's were then determined from the % polarization using normal calculation methods.

Measured: IC50

T2 sequence (Q02763 770-1124 limits assumed): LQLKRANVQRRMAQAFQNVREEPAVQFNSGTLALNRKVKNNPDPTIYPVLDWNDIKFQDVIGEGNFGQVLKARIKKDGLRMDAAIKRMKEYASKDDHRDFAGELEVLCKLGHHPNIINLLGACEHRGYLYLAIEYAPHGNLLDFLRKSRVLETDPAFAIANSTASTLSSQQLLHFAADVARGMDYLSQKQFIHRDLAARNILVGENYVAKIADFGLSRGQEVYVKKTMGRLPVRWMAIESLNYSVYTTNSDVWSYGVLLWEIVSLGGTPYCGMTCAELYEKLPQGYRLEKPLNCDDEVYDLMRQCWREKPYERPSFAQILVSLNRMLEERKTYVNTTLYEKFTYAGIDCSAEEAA
T1 sequence (P35968 786-1356 limits assumed): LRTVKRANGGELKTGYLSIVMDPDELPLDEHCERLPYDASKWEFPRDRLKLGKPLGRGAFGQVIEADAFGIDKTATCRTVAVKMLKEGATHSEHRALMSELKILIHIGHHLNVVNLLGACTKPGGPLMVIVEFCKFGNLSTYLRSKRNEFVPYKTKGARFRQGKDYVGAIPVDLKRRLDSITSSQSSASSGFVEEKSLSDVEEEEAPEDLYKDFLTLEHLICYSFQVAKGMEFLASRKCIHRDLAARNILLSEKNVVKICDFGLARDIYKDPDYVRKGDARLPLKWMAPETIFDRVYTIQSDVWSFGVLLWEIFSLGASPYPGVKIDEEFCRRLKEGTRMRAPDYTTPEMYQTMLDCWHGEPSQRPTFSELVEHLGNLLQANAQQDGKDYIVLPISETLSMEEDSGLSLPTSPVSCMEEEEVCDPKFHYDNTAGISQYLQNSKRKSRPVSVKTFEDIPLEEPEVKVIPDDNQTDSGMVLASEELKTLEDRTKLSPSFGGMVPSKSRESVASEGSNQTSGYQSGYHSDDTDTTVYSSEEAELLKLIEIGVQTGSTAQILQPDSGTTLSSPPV

CN(c1ccc(NC(=O)Nc2ccc(OC(F)(F)F)cc2)cc1)c1ccnc(Nc2cccc(S(N)(=O)=O)c2)n1 [Example 1, 3-{[4-(methyl{4-[({[4-(trifluoromethoxy)phenyl]amino}carbonyl)amino]phenyl}-amino)pyrimidin-2-yl]amino}benzenesulfonamide]
< 100 nM: all assays above

CN(c1ccc(NC(=O)Nc2ccc(C(F)(F)F)cc2)cc1)c1ccnc(Nc2cccc(S(N)(=O)=O)c2)n1 [Example 2, 3-{[4-(methyl{4-[({[4-(trifluoromethyl)phenyl]amino}carbonyl)amino]phenyl}amino)pyrimidin-2-yl]amino}benzenesulfonamide]
< 100 nM: all assays above

CN(c1ccc(NC(=O)Nc2ccc(Oc3ccccc3)cc2)cc1)c1ccnc(Nc2cccc(S(N)(=O)=O)c2)n1 [Example 3, 3-[(4-{methyl[4-({[(4-phenoxyphenyl)amino]carbonyl}amino)phenyl]amino}-pyrimidin-2-yl)amino]benzenesulfonamide]
< 100 nM: all assays above

Cc1cccc(NC(=O)Nc2ccc(N(C)c3ccnc(Nc4cccc(S(N)(=O)=O)c4)n3)cc2)c1 [Example 4, 3-[(4-{methyl[4-({[(3-methylphenyl)amino]carbonyl}amino)phenyl]amino}pyrimidin-2-yl)amino]benzenesulfonamide]
< 100 nM: all assays above

CN(c1ccc(NC(=O)NCc2ccccc2Cl)cc1)c1ccnc(Nc2cccc(S(N)(=O)=O)c2)n1 [Example 5, 3-({4-[[4-({[(2-chlorobenzyl)amino]carbonyl}amino)phenyl](methyl)amino]pyrimidin-2-yl}amino)benzenesulfonamide]
< 100 nM: all assays above

CCc1cccc(NC(=O)Nc2ccc(N(C)c3ccnc(Nc4cccc(S(N)(=O)=O)c4)n3)cc2)c1 [Example 6, 3-({4-[[4-({[(3-ethylphenyl)amino]carbonyl}amino)phenyl](methyl)amino]pyrimidin-2-yl}amino)benzenesulfonamide]
< 100 nM: all assays above

CN(c1ccc(NC(=O)Nc2cccc(F)c2)cc1)c1ccnc(Nc2cccc(S(N)(=O)=O)c2)n1 [Example 7, 3-({4-[[4-({[(3-Fluorophenyl)amino]corbonyl}amino)phenyl](methyl)amino]pyrimidin-2-yl}amino)benzenesulfonamide]
< 100 nM: all assays above

CCS(=O)(=O)c1ccc(OC)c(Nc2nccc(N(C)c3ccc(NC(=O)Nc4cccc(Cl)c4)cc3)n2)c1 [Example 8, N-(3-Chlorophenyl)-N′-{4-[(2-{[5-(ethylsulfonyl)-2-methoxyphenyl]amino}pyrimidin-4-yl)(methyl)amino]phenyl}urea]
< 100 nM: all assays above

CN(c1ccc(NC(=O)Nc2cccc(Cl)c2)cc1)c1ccnc(Nc2cccc(S(N)(=O)=O)c2)n1 [Example 9, 3-({4-[[4-({[(3-Chlorophenyl)amino]carbonyl}amino)phenyl](methyl)amino]-pyrimidin-2-yl}amino)benzenesulfonamide]
< 100 nM: all assays above

CN(c1ccc(NC(=O)Nc2ccccc2)cc1)c1ccnc(Nc2cccc(S(N)(=O)=O)c2)n1 [Example 10, 3-({4-[{4-[(anilinocarbonyl)amino]phenyl}(methyl)amino]pyrimidin-2-yl}amino)benzenesulfonamide]
< 100 nM: all assays above

CN(c1ccc(NC(=O)Nc2cc(C(F)(F)F)ccc2F)cc1)c1ccnc(Nc2cccc(S(N)(=O)=O)c2)n1 [Example 11, 3-({4-[{4-[({[2-Fluoro-5-(trifluoromethyl)phenyl]amino}carbonyl)amino]phenyl}(methyl)amino]pyrimidin-2-yl}amino)benzenesulfonamide]
< 100 nM: all assays above

CN(c1ccc(NC(=O)Nc2cccc(F)c2)cc1)c1ccnc(Nc2ccc(CS(C)(=O)=O)cc2)n1 [Example 12, N-(3-fluorophenyl)-N′-(4-{methyl[2-({4-[(methylsulfonyl)methyl]phenyl}amino)pyrimidin-4-yl]amino}phenyl)urea hydrochloride]
< 100 nM: all assays above

CN(c1ccc(NC(=O)Nc2cc(C(F)(F)F)ccc2F)cc1)c1ccnc(Nc2ccc(CS(C)(=O)=O)cc2)n1 [Example 13, N-[2-fluoro-5-(trifluoromethyl)phenyl]-N′-(4-{methyl[2-({4-(methylsulfonyl)methyl]phenyl}amino)pyrimidin-4-yl]amino}phenyl)urea hydrochloride]
< 100 nM: all assays above

CN(c1cccc(NC(=O)Nc2cc(C(F)(F)F)ccc2F)c1)c1ccnc(Nc2cccc(S(N)(=O)=O)c2)n1 [Example 14, 3-({4-[{3-[({[2-Fluoro-5-(trifluoromethyl)phenyl]amino}carbonyl)amino]phenyl}(methyl)amino]pyrimidin-2-yl}amino)benzenesulfonamide]
< 100 nM: all assays above

CN(c1cccc(NC(=O)Nc2cccc(Cl)c2)c1)c1ccnc(Nc2cccc(S(N)(=O)=O)c2)n1 [Example 15, 3-({4-[[3-({[(3-Chlorophenyl)amino]carbonyl}amino)phenyl](methyl)amino]pyrimidin-2-yl}amino)benzenesulfonamide]
< 100 nM: all assays above
